For experiment [1], the system named is U-251. Description: Antiproliferative activity against human U-251 cells assessed as inhibition of cell growth at 100 uM incubated for 48 hrs by MTT assay. Set-up: scale not given: the % may be the effect or the level left. It is filed as functional. For orientation: Formazan colour is commonly taken as a measure of viable cells.
Experiment [2] concerns U-87 MG. Nature of the experiment: Antiproliferative activity against human U-87 MG cells assessed as inhibition of cell growth at 100 uM incubated for 48 hrs by MTT assay. It is filed as functional, U-87MG ATCC. Further details: scale not given: the % may be the effect or the level left.
Experiment [3] relates to T98G. Description: Induction of apoptosis in human T98G cells assessed as total apoptotic cells at 10 uM incubated for 48 hrs by Annexin V-FITC/PI staining based flow cytometry analysis (reference value: 6.4 +/- 0.8 %). It is filed as functional. For orientation: A flow cytometer gives signals particle by particle.
Experiment [4] concerns U-251. Description: Induction of apoptosis in human U-251 cells assessed as early apoptotic cells at 5 uM incubated for 48 hrs by Annexin V-FITC/PI staining based flow cytometry analysis (reference value: 1.5 +/- 0.4 %). It is filed as functional.
Experiment [5] concerns U-87 MG. Description: Induction of apoptosis in human U-87 MG cells assessed as early apoptotic cells at 10 uM incubated for 48 hrs by Annexin V-FITC/PI staining based flow cytometry analysis (reference value: 1.1 +/- 0.6 %). It is filed as functional, U-87MG ATCC.
Experiment [6] deals with U-87 MG. Nature of the experiment: Induction of apoptosis in human U-87 MG cells assessed as late apoptotic cells at 5 uM incubated for 48 hrs by Annexin V-FITC/PI staining based flow cytometry analysis (reference value: 11 +/- 1%). It is filed as functional, U-87MG ATCC.
Experiment [7] has as its system U-251. Description: Induction of apoptosis in human U-251 cells assessed as early apoptotic cells at 10 uM incubated for 48 hrs by Annexin V-FITC/PI staining based flow cytometry analysis (reference value: 1.5 +/- 0.4 %). It is filed as functional.
Experiment [8] relates to T98G. Description: Inhibition of cell invasion in human T98G cells at 5 to 10 uM incubated for 48 hrs by crystal violet staining based fluorescent microscope analysis. It is filed as functional. Conditions: dose 5-10 µM.
Experiment [9] has as its system U-87 MG. Nature of the experiment: Induction of apoptosis in human U-87 MG cells assessed as early apoptotic cells at 5 uM incubated for 48 hrs by Annexin V-FITC/PI staining based flow cytometry analysis (reference value: 1.1 +/- 0.6 %). It is filed as functional, U-87MG ATCC.
For experiment [10], the system named is T98G. Description: Induction of apoptosis in human T98G cells assessed as late apoptotic cells at 2 uM incubated for 48 hrs by Annexin V-FITC/PI staining based flow cytometry analysis (reference value: 3.7 +/- 0.3 %). It is filed as functional.
Experiment [11] concerns U-251. Description: Induction of apoptosis in human U-251 cells assessed as late apoptotic cells at 10 uM incubated for 48 hrs by Annexin V-FITC/PI staining based flow cytometry analysis (reference value: 1.3 +/- 0.6%). It is filed as functional.
Experiment [12] deals with U-87 MG. Nature of the experiment: Induction of apoptosis in human U-87 MG cells assessed as total apoptotic cells at 2 uM incubated for 48 hrs by Annexin V-FITC/PI staining based flow cytometry analysis (reference value: 16 +/- 1%). It is filed as functional, U-87MG ATCC.
Experiment [13] concerns U-251. Nature of the experiment: Antiproliferative activity against human U-251 cells assessed as inhibition of cell growth incubated for 48 hrs by MTT assay. It is filed as functional, cell-based. As to conditions: U-251, 48 h.
Experiment [14] deals with U-87 MG. Description: Induction of apoptosis in human U-87 MG cells assessed as late apoptotic cells at 2 uM incubated for 48 hrs by Annexin V-FITC/PI staining based flow cytometry analysis (reference value: 11 +/- 1%). It is filed as functional, U-87MG ATCC.
In experiment [15] the test system is T98G. Description: Induction of apoptosis in human T98G cells assessed as early apoptotic cells at 10 uM incubated for 48 hrs by Annexin V-FITC/PI staining based flow cytometry analysis (reference value: 2.7 +/- 0.5 %). It is filed as functional.
For experiment [16], the system named is U-251. Description: Inhibition of cell migration in human U-251 cells incubated for 48 hrs by inverted optical microscope based wound healing assay. It is filed as functional.
Experiment [17] deals with U-251. Description: Induction of apoptosis in human U-251 cells assessed as total apoptotic cells at 10 uM incubated for 48 hrs by Annexin V-FITC/PI staining based flow cytometry analysis (reference value: 2.8 +/- 0.3%). It is filed as functional.
Experiment [18] has as its system U-251. Description: Induction of apoptosis in human U-251 cells assessed as late apoptotic cells at 2 uM incubated for 48 hrs by Annexin V-FITC/PI staining based flow cytometry analysis (reference value: 1.3 +/- 0.6%). It is filed as functional.
Experiment [19] deals with U-251. Description: Inhibition of cell invasion in human U-251 cells at 5 to 10 uM incubated for 48 hrs by crystal violet staining based fluorescent microscope analysis. It is filed as functional. As to conditions: dose 5-10 µM.
In experiment [20] the test system is U-251. Nature of the experiment: Induction of apoptosis in human U-251 cells assessed as total apoptotic cells at 5 uM incubated for 48 hrs by Annexin V-FITC/PI staining based flow cytometry analysis (reference value: 2.8 +/- 0.3%). It is filed as functional.
For experiment [21], the system named is U-87 MG. Nature of the experiment: Antiproliferative activity against human U-87 MG cells assessed as inhibition of cell growth incubated for 48 hrs by MTT assay. It is filed as functional, cell-based, U-87MG ATCC.
In experiment [22] the test system is U-87 MG. Nature of the experiment: Induction of apoptosis in human U-87 MG cells assessed as late apoptotic cells at 10 uM incubated for 48 hrs by Annexin V-FITC/PI staining based flow cytometry analysis (reference value: 11 +/- 1%). It is filed as functional, U-87MG ATCC.
The test system of experiment [23] is T98G. Description: Induction of apoptosis in human T98G cells assessed as late apoptotic cells at 10 uM incubated for 48 hrs by Annexin V-FITC/PI staining based flow cytometry analysis (reference value: 3.7 +/- 0.3 %). It is filed as functional.
Experiment [24] concerns U-87 MG. Description: Inhibition of cell migration in human U-87 MG cells incubated for 48 hrs by inverted optical microscope based wound healing assay. It is filed as functional. As to conditions: U-87MG ATCC.
Experiment [25] concerns T98G. Nature of the experiment: Antiproliferative activity against human T98G cells assessed as inhibition of cell growth incubated for 48 hrs by MTT assay. It is filed as functional, cell-based.
The test system of experiment [26] is U-87 MG. Nature of the experiment: Induction of apoptosis in human U-87 MG cells assessed as early apoptotic cells at 2 uM incubated for 48 hrs by Annexin V-FITC/PI staining based flow cytometry analysis (reference value: 1.1 +/- 0.6 %). It is filed as functional, U-87MG ATCC.
Experiment [27] has as its system U-251. Description: Induction of apoptosis in human U-251 cells assessed as early apoptotic cells at 2 uM incubated for 48 hrs by Annexin V-FITC/PI staining based flow cytometry analysis (reference value: 1.5 +/- 0.4 %). It is filed as functional.
Experiment [28] has as its system U-87 MG. Description: Induction of apoptosis in human U-87 MG cells assessed as total apoptotic cells at 10 uM incubated for 48 hrs by Annexin V-FITC/PI staining based flow cytometry analysis (reference value: 16 +/- 1%). It is filed as functional, U-87MG ATCC.
The test system of experiment [29] is T98G. Nature of the experiment: Induction of apoptosis in human T98G cells assessed as late apoptotic cells at 5 uM incubated for 48 hrs by Annexin V-FITC/PI staining based flow cytometry analysis (reference value: 3.7 +/- 0.3 %). It is filed as functional.
For experiment [30], the system named is U-87 MG. Description: Inhibition of cell invasion in human U-87 MG cells at 5 to 10 uM incubated for 48 hrs by crystal violet staining based fluorescent microscope analysis. It is filed as functional. As to conditions: U-87MG ATCC, dose 5-10 µM.
The test system of experiment [31] is T98G. Nature of the experiment: Induction of apoptosis in human T98G cells assessed as early apoptotic cells at 2 uM incubated for 48 hrs by Annexin V-FITC/PI staining based flow cytometry analysis (reference value: 2.7 +/- 0.5 %). It is filed as functional.
The test system of experiment [32] is U-251. Description: Induction of apoptosis in human U-251 cells assessed as total apoptotic cells at 2 uM incubated for 48 hrs by Annexin V-FITC/PI staining based flow cytometry analysis (reference value: 2.8 +/- 0.3%). It is filed as functional.
Experiment [33] concerns T98G. Description: Induction of apoptosis in human T98G cells assessed as total apoptotic cells at 2 uM incubated for 48 hrs by Annexin V-FITC/PI staining based flow cytometry analysis (reference value: 6.4 +/- 0.8 %). It is filed as functional.
Experiment [34] deals with T98G. Nature of the experiment: Inhibition of cell migration in human T98G cells incubated for 48 hrs by inverted optical microscope based wound healing assay. It is filed as functional.
In experiment [35] the test system is U-87 MG. Nature of the experiment: Induction of apoptosis in human U-87 MG cells assessed as total apoptotic cells at 5 uM incubated for 48 hrs by Annexin V-FITC/PI staining based flow cytometry analysis (reference value: 16 +/- 1%). It is filed as functional, U-87MG ATCC.
Experiment [36] has as its system T98G. Description: Induction of apoptosis in human T98G cells assessed as early apoptotic cells at 5 uM incubated for 48 hrs by Annexin V-FITC/PI staining based flow cytometry analysis (reference value: 2.7 +/- 0.5 %). It is filed as functional.
Experiment [37] deals with T98G. Nature of the experiment: Induction of apoptosis in human T98G cells assessed as total apoptotic cells at 5 uM incubated for 48 hrs by Annexin V-FITC/PI staining based flow cytometry analysis (reference value: 6.4 +/- 0.8 %). It is filed as functional.
The test system of experiment [38] is U-251. Description: Induction of apoptosis in human U-251 cells assessed as late apoptotic cells at 5 uM incubated for 48 hrs by Annexin V-FITC/PI staining based flow cytometry analysis (reference value: 1.3 +/- 0.6%). It is filed as functional.
Experiment [39] has as its system T98G. Nature of the experiment: Antiproliferative activity against human T98G cells assessed as inhibition of cell growth at 100 uM incubated for 48 hrs by MTT assay. It is filed as functional, cell-based.

The source made the active and inactive calls. The rule behind the calls is not given here.

The source of these data is ChEMBL document CHEMBL5390284, “Shikimate-Derived Meroterpenoids from the Ascidian-Derived Fungus Amphichorda felina SYSU-MS7908 and Their Anti-Glioma Activity” (J Nat Prod, 2023).

For the compound `C=C(C)C#C[C@]12O[C@H]1[C@@H]1OC(C)(C)[C@H](OC(C)=O)C[C@@]13O[C@H]3[C@@H]2OC(C)=O`, the Activity in the experiment on U-251 [1] and in the experiment on U-87 MG [2] was >50% in each case.
Usually IC50 stands for the concentration at which inhibition is half-maximal. For `C=C(C)C#C[C@]12O[C@H]1[C@@H]1OC(C)(C)[C@H](OC(C)=O)C[C@@]13O[C@H]3C2=O`, the Activity turned out to be 11% in the experiment with T98G [3]; 3.1% in the experiment with U-251 [4]; 17% in the experiment with U-87 MG [5]; 14% in the experiment on U-87 MG [6]; 5% with U-251 [7]; 16% in the experiment on U-87 MG [9]. For the same compound, the Activity stood at 4.1% with T98G [10]; 5.4% with U-251 [11]; 22% in the experiment with U-87 MG [12]; 18% in the experiment on U-87 MG [14]; 4.8% with T98G [15]; 10% with U-251 [17]. The Activity in the experiment on U-251 [18] is given as 2%; in the experiment with U-251 [20], 9%; in the experiment with U-87 MG [22], 67%; with T98G [23], 6.5%; in the experiment on U-87 MG [26], 3.6%; in the experiment with U-251 [27], 1.2%. For the same compound, the Activity is reported as 84% in the experiment on U-87 MG [28]; 5.1% in the experiment with T98G [29]; >50% with U-251 [1]; 1.5% with T98G [31]; >50% with U-87 MG [2]; 3.2% with U-251 [32]. Besides, the Activity in the experiment with T98G [33] is listed as 5.6%; in the experiment with U-87 MG [35] it was 30%; with T98G [36], 2.6%; in the experiment with T98G [37] it was 7.7%; with U-251 [38], 6%. The inhibition result in the experiment with T98G [8], in the experiment on U-251 [19] and in the experiment on U-87 MG [30] was “Active” in each case. Moreover, the results for the IC50 in the experiment with U-251 [13], in the experiment on U-87 MG [21] and with T98G [25] were 20 µM, 6.8 µM and 13 µM, respectively. Besides, the inhibition result in the experiment on U-251 [16], in the experiment on U-87 MG [24] and in the experiment on T98G [34] was “Dose-Dependent Effect” in each case.
Regarding `CC1(C)CC(=O)c2cc3c(c(Cl)c2O1)C[C@@H](O)C(C)(C)O3`, the result with T98G [39], in the experiment on U-251 [1] and in the experiment with U-87 MG [2] (U-87MG ATCC) was inactive.
For `CC(=O)O[C@@H]1Cc2c(cc3c(c2O)OC(C)(C)CC3=O)OC1(C)C`, the result with T98G [39], with U-251 [1] and with U-87 MG [2] (U-87MG ATCC) was inactive.
On to `CC1(C)CC(=O)C2=C(O1)C(=O)[C@@]1(O)C[C@@H](O)C(C)(C)O[C@H]1[C@@H]2O`, for which the outcome in the experiment with T98G [39], in the experiment with U-251 [1] and in the experiment with U-87 MG [2] (U-87MG ATCC) was inactive.
